The values that follow come from US4783462A, “3(2H)pyridazinone, and anti-allergic agent containing it” (Nissan Chemical Industries Ltd., priority 1985, dated 1988).

One series has as its system ddY strain male mice. The series is described as follows: Acute toxicity test, Test method-(2), intraperitoneal. The conditions noted are these: 7 days. In kind it is in vivo. As to the method:
The lethal ratio was determined in ddY strain male mice (4 weeks old) at 7 days after the intraperitoneal injection of test compounds.

The subject of series [1] is LTC4. The series is described as follows: Antagonism in isolated guinea-pig trachea, Test method (i) (Table 3, given as LTC4 antagonism). In kind it is cell-based. The conditions noted are these: Cavia porcellus, 5 min, test compound 10^-5 g/ml, given as LTC4 antagonisms. The method, boiled down:
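Spiral strips of guinea-pig trachea under 1 g tension, contracted by LTC4 (2×10^-8 g/ml) after maximal histamine (10^-4 M) response. Compounds added at 10^-5 or 10^-6 g/ml final 5 min beforehand; contraction expressed as % histamine maximum and antagonism % calculated against paired untreated trachea.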

In series [2] the test system is LTC4. As to the kind of experiment: LTC4 antagonism in isolated guinea-pig trachea, Test method (i) (Table 2). Format: cell-based. The settings on record: Cavia porcellus, 5 min, read-out: Antagonism (%). The method, then: (§1) (i) LTC4 and LTD4 antagonisms in guinea-pig trachea
(§2) Antagonisms for LTC4 and LTD4 were determined in isolated guinea-pig trachea prepared as spiral strip. Tracheal preparations were suspended under 1 g tension in 10 ml organ baths and they were incubated for 1 hr prior to use. Contractile responses to LTC4 (2×10^-8 g/ml) and LTD4 (2×10^-8 g/ml) were obtained after the maximal response to histamine (10^-4 M). Test compounds dissolved in 100% dimethyl sulfoxide were added to the organ baths (final concentration of 10^-5 g/ml or 10^-6 g/ml) 5 min prior to LTC4 and LTD4 addition, and then contractile responses to LTC4 and LTD4 were compared with those of control which was obtained from a paired trachea in the absence of test compounds. LTC4 - and LTD4 -induced contractions were expressed as a percentage of the maximal response to histamine. The antagonism was determined as follows:
(§3) Antagonism (%)=(1.0-% contraction in test/% contraction in […]

The test system of series [3] is anaphylactic bronchoconstriction in passively sensitized guinea-pig. As to the kind of experiment: Effect on anaphylactic bronchoconstriction in passively sensitized guinea-pig. In kind it is in vivo. The settings on record: 2 mg/kg i.v. As to the method:
(iii) Effect on anaphylactic bronchoconstriction in passively sensitized guinea-pig
Male guinea-pigs (350-450 g) were passively sensitized with intravenous (i.v.) injection of 0.125 ml rabbit anti-EA (egg albumin) serum (Cappel Laboratories) 1 day preceding the experiment. […] Sensitized guinea-pigs were anaesthetized with intraperitoneal injection of urethane (1.5 g/kg). The right jugular vein was cannulated for the administration of the all agents and trachea was cannulated to record total pulmonary resistance. Guinea-pigs were artificially ventilated by a small animal respirator (Shinano, Model SN-480-7) set at a stroke volume of 5 ml and a rate of 50 breaths per min. […] The increase in air overflow volume was expressed as a percentage of the maximum bronchoconstriction obtained by clamping off the trachea. Following surgical preparation, the animals were pretreated with indomethacin (1.0 mg/kg, 10 min), pyrilamine (2 mg/kg, 6 min) and propranolol (0.1 mg/kg, 5 min) prior to the EA challenge (0.1 or 10 mg/kg). All test compounds, 2 mg/kg in 3% Tween 80 or 3% PEG-400, were administered 1 min before the EA challenge. Inhibition (%) of bronchoconstriction was determined as follows: Inhibition (%)=(1.0%-maximum bronchoconstriction in test/% maximum bronchoconstriction in control)×100. The maximum bronchoconstriction was obtained within 20 min after the EA challenge.
In the Table, the dose of EA was 10 mg/kg, and each compound was dissolved or suspended in 3% Tween 80.
The dose of EA was 0.1 mg/kg.

In series [4] the test system is LTD4. The series is described as follows: LTD4 antagonism in isolated guinea-pig trachea with indomethacin, Test method (ii) (Table 4). In kind it is cell-based. The conditions noted are these: Cavia porcellus, 0.5 h, LTD4 2×10^-8 g/ml, test compound 10^-6 g/ml, 30 min prior, 5 μmol indomethacin.
Series [5] concerns LTD4. The series is described as follows: LTD4 antagonism in isolated guinea-pig trachea, Test method (i) (Table 4, values with asterisk). The settings on record: Cavia porcellus, 5 min, test compound 10^-6 g/ml, 5 min prior. Format: cell-based. The method, then:
as §1, §2, §3

The mark [6] stands for this setting: Table 5-(1), EA 10 mg/kg, 3% Tween 80.

SMILES strings stand for the structures.

Consider `CCCc1cc(C(=O)O)ccc1OCCCNc1cnn(CC)c(=O)c1Cl` [Compound No. 7, 4-Chloro-5-[3-(2-n-propyl-4-carboxyphenoxy)propylamino]-2-ethyl-3(2H)pyridazinone], for which the figures for the “Lethal ratio (Death number/Experimental number)” value with ddY strain male mice (200 mg/kg intraperitoneal) and with ddY strain male mice (400 mg/kg intraperitoneal) were 0/2 and 0/1, respectively. Moreover, the inhibition at 10 µg/mL in the series on LTC4 [1] was 82%; with LTC4 [2] (LTC4 2×10^-8 g/ml, test compound 10^-5 g/ml), 95%. For the same compound, the “Inhibition (%)” value in series [3] (setting [6]) came to 31%.

Turning to `CCCc1c(OCC(O)COc2ccc3c(=O)cc(C(=O)O)oc3c2CCC)ccc(C(C)=O)c1O` (centres unmarked) [FPL-55712, reference compound], the inhibition at 1 µg/mL in the series with LTD4 [4] was 94%; in the series on LTD4 [5], 76%. Moreover, the values for the inhibition at 10 µg/mL in the series on LTC4 [1] and with LTC4 [2] were 97% and 100%, respectively. The “Inhibition (%)” value in series [3] (setting [6]) was 27%; in series [3] (Table 5-(2), EA 0.1 mg/kg, Tween 80), 60%.
